In PubChem BioAssay (NCI):
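These data come from cells grown in 96-well plates and exposed to compound for 48 hours at five concentrations. GI50 marks 50% less growth. TGI marks complete inhibition of growth.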

Legend:
Assay in all cases: NCI anticancer screen, dose series, 48 h
HCC-2998 colon = tested on: HCC-2998 colon
BT-549 breast = tested on: BT-549 breast
IGROV1 ovarian = tested on: IGROV1 ovarian
SK-MEL-28 melanoma = tested on: SK-MEL-28 melanoma
OVCAR-3 ovarian = tested on: OVCAR-3 ovarian
SF-268 CNS = tested on: SF-268 CNS
TK-10 renal = tested on: TK-10 renal
CCRF-CEM leukemia = tested on: CCRF-CEM leukemia
RPMI-8226 leukemia = tested on: RPMI-8226 leukemia
RXF 393 renal = tested on: RXF 393 renal

Row | Compound | GI50 (HCC-2998 colon) [µM] | TGI (HCC-2998 colon) [µM] | GI50 (BT-549 breast) [µM] | TGI (BT-549 breast) [µM] | GI50 (IGROV1 ovarian) [µM] | TGI (IGROV1 ovarian) [µM] | GI50 (SK-MEL-28 melanoma) [µM] | TGI (SK-MEL-28 melanoma) [µM] | GI50 (OVCAR-3 ovarian) [µM] | TGI (OVCAR-3 ovarian) [µM] | GI50 (SF-268 CNS) [µM] | TGI (SF-268 CNS) [µM] | GI50 (TK-10 renal) [µM] | TGI (TK-10 renal) [µM] | GI50 (CCRF-CEM leukemia) [µM] | TGI (CCRF-CEM leukemia) [µM] | GI50 (RPMI-8226 leukemia) [µM] | TGI (RPMI-8226 leukemia) [µM] | TGI (RXF 393 renal) [µM]
1 | C[C@]12CCc3sc(Nc4ccc(O)cc4)nc3C1=CC[C@@H]1[C@@H]2CC[C@]2(C)C(=O)CC[C@@H]12 | 4.11 | > 100 | 3.13 | > 100 | 1.99 | 5.02 | 2.08 | 4.75 | 1.71 | 3.38 | 3.37 | > 100 | 2.01 | 4.4 | 2.47 | > 100 | 2.35 | 7.07 | –
2 | COC(=O)[C@@]12C(=O)C(C)C(=O)[C@]1(C)C(C)=C[C@H]1[C@]3(C=O)CC[C@H](OC(C)=O)C(C)(C)[C@H]3CC[C@@]12C (some centres undefined) | – | > 100 | – | > 100 | – | – | – | > 100 | – | > 100 | – | > 100 | – | > 100 | – | 63.8 | – | > 100 | > 100
3 | O=C(Cc1ccccc1)NNc1nc(NNC(=O)c2ccncc2)nc(Nc2cccc(Cl)c2)n1 | – | > 10 | – | > 10 | – | > 10 | – | > 10 | – | – | – | > 10 | – | > 10 | – | > 10 | – | > 10 | –
4 | CN(C)CCn1c(=O)c2ccc3c4c(nn3CCN(C)C)c3cc(O)ccc3n(c1=O)c24 | – | 0.176 | – | 3.66 | – | – | – | 1.58 | – | 0.842 | – | 0.591 | – | 0.837 | – | 0.656 | – | 0.406 | 0.977
5 | O=C(CCCN1CCC2(CC1)CC(=O)N(N1CCCCCC1)C2=O)c1ccc(F)cc1 | – | – | – | > 100 | – | > 100 | – | > 100 | – | > 100 | – | > 100 | – | > 100 | – | > 100 | – | > 100 | 97.9
6 | CC(C)(C)OC(=O)N(CCNS(=O)(=O)c1cccc2cnccc12)CCC(=O)ON1C(=O)CCC1=O | – | – | – | > 100 | – | > 100 | – | > 100 | – | > 100 | – | > 100 | – | > 100 | – | – | – | > 100 | > 100
7 | c1ccc(C2OCC(OC3CCCCO3)CO2)cc1 (centres undefined) | – | > 100 | – | > 100 | – | > 100 | – | > 100 | – | > 100 | – | > 100 | – | > 100 | – | – | – | > 100 | –
8 | C/C(=N\NC(=S)NC(C)(C)C)c1ccccn1 | – | > 100 | – | > 100 | – | > 40.6 | – | > 100 | – | > 100 | – | > 87.8 | – | > 100 | – | – | – | 3.72 | 23.2
9 | O=C(/C=C/c1ccc(Cl)cc1)c1cccs1 | – | 37.5 | – | – | – | 75.3 | – | 54.2 | – | – | – | 75.9 | – | 47 | – | 98.1 | – | 8.29 | –
10 | Cn1cnc(N2CCCC2)c(C#N)c1=O | – | > 100 | – | – | – | > 100 | – | > 100 | – | > 100 | – | > 100 | – | > 100 | – | > 100 | – | > 100 | > 100
11 | NC(CCCCNC(=O)CNC(=O)OCc1ccccc1)C(=O)NC(CCCCNC(=O)CNC(=O)OCc1ccccc1)C(=O)NC(CCCCNC(=O)CNC(=O)OCc1ccccc1)C(=O)NC(CCCCNC(=O)CNC(=O)OCc1ccccc1)C(=O)NC(CCCCNC(=O)CNC(=O)OCc1ccccc1)C(=O)NC(CCCCNC(=O)CNC(=O)OCc1ccccc1)C(=O)O (centres undefined) | – | > 75 | – | > 75 | – | > 75 | – | > 75 | – | > 75 | – | > 75 | – | > 75 | – | > 75 | – | > 75 | –
12 | CC(=O)N(CN1C(=O)CCC1C(=O)O)c1cccc(O)c1 (centres undefined) | – | > 100 | – | – | – | > 100 | – | > 100 | – | > 100 | – | > 100 | – | > 100 | – | > 100 | – | > 100 | –
13 | Cc1ccc2c(C)c3ccc4ccccc4c3c[n+]2c1 | – | 28.6 | – | – | – | > 100 | – | 33 | – | 38.1 | – | 14.8 | – | > 100 | – | 46.4 | – | 64.8 | 67.4
14 | c1ccc(C2OCCO2)c(OCCOc2cc(OCCOc3ccccc3C3OCCO3)c(OCCOc3ccccc3C3OCCO3)cc2OCCOc2ccccc2C2OCCO2)c1 | – | – | – | – | – | 28.6 | – | > 100 | – | 46.8 | – | 66.5 | – | 31.4 | – | > 100 | – | > 100 | 18.2
15 | CCOc1cc2c(cc1OC(C)=O)C(=O)CC[C@H]1C3CC[C@H](OC(C)=O)[C@@]3(C)CC[C@H]21 (some centres undefined) | – | > 100 | – | > 100 | – | – | – | > 100 | – | > 100 | – | > 100 | – | > 100 | – | > 100 | – | > 100 | > 100
16 | Cc1ccc(S(=O)(=O)Nn2c(S)c(C#N)c(-c3ccc([N+](=O)[O-])cc3)c(C#N)c2=O)cc1 | – | > 100 | – | 29.6 | – | 51 | – | > 100 | – | – | – | > 100 | – | > 100 | – | 52.6 | – | 37.8 | > 100
17 | COc1ccc(C(=O)/C=C/c2cccnc2)cc1OC | – | – | – | 19.3 | – | 21.9 | – | 33.1 | – | 11 | – | 26.7 | – | 29.1 | – | > 100 | – | – | 18.6
18 | Nc1nc(N)c2[nH]cnc2n1 (tested in a mixture with another compound) | – | – | – | > 100 | – | > 100 | – | > 100 | – | 74.4 | – | > 100 | – | 80.7 | – | > 100 | – | > 100 | 80.6
19 | COC(=O)C1CCC(=O)N1C(c1ccccc1)c1cc(OC)c(OC)c(OC)c1 (centres undefined) | – | > 100 | – | > 100 | – | > 100 | – | > 100 | – | > 100 | – | > 100 | – | > 100 | – | > 100 | – | – | > 100
20 | O=C(CNC(=O)OCc1ccccc1)NCCCCC(NC(=O)OCc1ccccc1)C(=O)NC(CCCCNC(=O)CNC(=O)OCc1ccccc1)C(=O)OCc1ccccc1 (centres undefined) | – | > 62.5 | – | > 62.5 | – | > 62.5 | – | > 62.5 | – | > 62.5 | – | > 62.5 | – | > 62.5 | – | > 62.5 | – | > 62.5 | –
21 | CC(=O)N1N(c2ccc([N+](=O)[O-])cc2)C(=O)C1(C)C | – | 29.7 | – | 24.2 | – | 44.8 | – | 37.4 | – | 40.5 | – | 87.1 | – | 36.2 | – | 33.3 | – | – | 32.3
22 | C/C(=N\NC(=S)Nc1ccc(C)cc1)c1nc2ncccc2[nH]1 | – | 20.2 | – | 11.8 | – | 17.3 | – | 18.4 | – | 9.71 | – | 35.7 | – | 37 | – | 11.5 | – | > 100 | –
